These results are taken from ChEMBL document CHEMBL4373707 (J Med Chem, 2019).

Some results are limits rather than exact numbers.

Data set [1] concerns the target Integrin alpha-V/beta-5 (Homo sapiens, UniProt P06756+P18084).
Description: Inhibition of integrin alphavbeta5 (unknown origin) expressed in human K562 cells assessed as reduction in cell adhesion to human vitronectin incubated for 30 mins by fluorescent probe BCECF-AM based fluorescence assay
For data set [2] the following is noted: buffer.
Description: (§1) Aqueous kinetic solubility of the compund by CLND method
Data set [3] can be described thus: physchem. To be noted: buffer, pH 7.4.
Description: Lipophilicity, logD of the compound at pH 7.4 by chromatographic method
Data set [4] deals with T1, Integrin alpha-V/beta-6 (Homo sapiens, UniProt P06756+P18564).
Description: Inhibition of integrin alphavbeta6 (unknown origin) expressed in human K562 cells assessed as reduction in cell adhesion to GST-LAP1 (242 to 252 amino acids) incubated for 30 mins by fluorescent probe BCECF-AM based fluorescence assay
The target of data set [5] is Integrin alpha-V/beta-1 (Homo sapiens, UniProt P05556+P06756).
Sequence of Integrin alpha-V/beta-1 (P05556 21-798 limits assumed): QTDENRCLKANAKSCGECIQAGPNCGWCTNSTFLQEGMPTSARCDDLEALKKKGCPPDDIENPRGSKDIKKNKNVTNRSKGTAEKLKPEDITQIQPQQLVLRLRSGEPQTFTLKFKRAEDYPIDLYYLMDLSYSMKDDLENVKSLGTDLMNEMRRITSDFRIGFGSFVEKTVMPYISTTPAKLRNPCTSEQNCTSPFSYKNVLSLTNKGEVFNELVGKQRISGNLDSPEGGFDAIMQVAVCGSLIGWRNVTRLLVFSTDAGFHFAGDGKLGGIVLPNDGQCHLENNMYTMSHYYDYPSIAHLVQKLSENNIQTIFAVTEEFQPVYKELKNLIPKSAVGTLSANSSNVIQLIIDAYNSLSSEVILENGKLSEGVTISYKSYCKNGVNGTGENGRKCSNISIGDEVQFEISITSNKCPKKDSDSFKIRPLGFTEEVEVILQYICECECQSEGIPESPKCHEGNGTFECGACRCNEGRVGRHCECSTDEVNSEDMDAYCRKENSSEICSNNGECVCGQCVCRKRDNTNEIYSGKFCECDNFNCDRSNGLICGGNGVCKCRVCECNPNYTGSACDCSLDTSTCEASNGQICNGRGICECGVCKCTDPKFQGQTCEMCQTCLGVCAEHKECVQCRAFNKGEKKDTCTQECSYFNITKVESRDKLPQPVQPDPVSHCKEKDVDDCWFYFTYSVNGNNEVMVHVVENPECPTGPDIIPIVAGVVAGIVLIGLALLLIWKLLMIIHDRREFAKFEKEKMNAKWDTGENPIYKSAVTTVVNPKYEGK
Sequence of Integrin alpha-V/beta-1 (P06756 31-889 limits assumed): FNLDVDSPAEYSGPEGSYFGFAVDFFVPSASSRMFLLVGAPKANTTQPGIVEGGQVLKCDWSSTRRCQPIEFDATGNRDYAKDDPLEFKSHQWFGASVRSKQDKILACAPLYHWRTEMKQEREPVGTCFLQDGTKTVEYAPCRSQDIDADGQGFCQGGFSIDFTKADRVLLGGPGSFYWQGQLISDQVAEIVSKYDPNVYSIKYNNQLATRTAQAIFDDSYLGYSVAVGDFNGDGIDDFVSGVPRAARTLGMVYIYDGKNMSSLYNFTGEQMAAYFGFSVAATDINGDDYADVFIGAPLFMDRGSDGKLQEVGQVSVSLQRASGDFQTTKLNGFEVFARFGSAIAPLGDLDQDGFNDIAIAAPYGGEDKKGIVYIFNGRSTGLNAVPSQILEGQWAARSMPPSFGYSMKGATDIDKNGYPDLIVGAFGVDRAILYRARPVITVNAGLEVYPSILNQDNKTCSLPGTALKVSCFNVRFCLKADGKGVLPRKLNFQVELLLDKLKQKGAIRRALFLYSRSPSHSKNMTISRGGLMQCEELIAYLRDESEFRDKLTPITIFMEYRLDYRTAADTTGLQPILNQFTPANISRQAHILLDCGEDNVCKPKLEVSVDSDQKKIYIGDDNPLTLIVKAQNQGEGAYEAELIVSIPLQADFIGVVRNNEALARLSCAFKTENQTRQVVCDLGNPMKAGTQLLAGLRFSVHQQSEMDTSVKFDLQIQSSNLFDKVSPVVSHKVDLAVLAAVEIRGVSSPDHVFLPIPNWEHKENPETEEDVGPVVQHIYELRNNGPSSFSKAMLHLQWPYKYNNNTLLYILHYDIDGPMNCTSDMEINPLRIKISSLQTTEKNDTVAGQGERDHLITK
Sequence of Integrin alpha-V/beta-1 (P06756 891-1048 limits assumed): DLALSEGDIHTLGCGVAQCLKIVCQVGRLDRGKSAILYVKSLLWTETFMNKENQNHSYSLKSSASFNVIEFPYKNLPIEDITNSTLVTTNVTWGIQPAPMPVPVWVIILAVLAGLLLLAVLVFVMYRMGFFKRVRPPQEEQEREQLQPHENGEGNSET
Description: Inhibition of integrin alphavbeta1 (unknown origin) expressed in human A549 cells assessed as reduction in cell adhesion to GST-LAP1 (242 to 252 amino acids) incubated for 30 mins by fluorescent probe BCECF-AM based fluorescence assay
Data set [6] has as its target Integrin alpha-V/beta-3 (Homo sapiens, UniProt P05106+P06756).
Description: Inhibition of integrin alphavbeta3 (unknown origin) expressed in human K562 cells assessed as reduction in cell adhesion to GST-LAP1 (242 to 252 amino acids) incubated for 30 mins by fluorescent probe BCECF-AM based fluorescence assay
In data set [7] the target is Integrin alpha-V/beta-8 (Homo sapiens, UniProt P06756+P26012).
Sequence of Integrin alpha-V/beta-8 (P06756 31-889 limits assumed): as the sequence (P06756 31-889 limits assumed) above
Sequence of Integrin alpha-V/beta-8 (P06756 891-1048 limits assumed): as the sequence (P06756 891-1048 limits assumed) above
Sequence of Integrin alpha-V/beta-8 (P26012 43-769 limits assumed): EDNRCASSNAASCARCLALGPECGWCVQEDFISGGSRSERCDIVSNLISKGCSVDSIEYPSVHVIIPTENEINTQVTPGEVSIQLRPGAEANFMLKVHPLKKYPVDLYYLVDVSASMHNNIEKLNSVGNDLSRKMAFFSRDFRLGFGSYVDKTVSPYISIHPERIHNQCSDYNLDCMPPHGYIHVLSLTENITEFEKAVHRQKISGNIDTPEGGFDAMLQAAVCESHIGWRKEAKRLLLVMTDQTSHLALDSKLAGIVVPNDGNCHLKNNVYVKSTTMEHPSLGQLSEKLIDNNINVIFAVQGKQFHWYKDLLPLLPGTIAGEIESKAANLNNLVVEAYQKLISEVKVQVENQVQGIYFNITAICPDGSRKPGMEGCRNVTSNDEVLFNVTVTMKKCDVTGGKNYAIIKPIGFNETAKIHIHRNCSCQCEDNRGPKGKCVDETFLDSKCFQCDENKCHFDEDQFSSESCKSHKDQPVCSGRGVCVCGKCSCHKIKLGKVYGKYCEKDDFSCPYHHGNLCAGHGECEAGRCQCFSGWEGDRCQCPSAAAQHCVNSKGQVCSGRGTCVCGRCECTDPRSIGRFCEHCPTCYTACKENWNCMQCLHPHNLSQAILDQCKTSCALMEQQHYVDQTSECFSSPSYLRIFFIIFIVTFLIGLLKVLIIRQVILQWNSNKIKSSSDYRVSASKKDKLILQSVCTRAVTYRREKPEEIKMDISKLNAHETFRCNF
Description: Inhibition of integrin alphavbeta8 (unknown origin) expressed in human K562 cells assessed as reduction in cell adhesion to GST-LAP1 (242 to 252 amino acids) incubated for 30 mins by fluorescent probe BCECF-AM based fluorescence assay
Data set [8] can be described thus: Stability in cryopreserved human hepatocytes at 0.5 uM measured up to 60 mins by LC-MS/MS analysis. Format: ADME, cell-based, Hepatocyte. To be noted: 1 h.
Data set [9] can be described thus: Blood clearance in dual cannulated Wistar-Han rat at 1 mg/kg, iv administered as infusion for 30 mins and measured up to 24 hrs by LC-MS/MS analysis. Format: ADME, organism-based. To be noted: whole blood.
Data set [10] in a line: Volume of distribution in dual cannulated Wistar-Han rat at 1 mg/kg, iv administered as infusion for 30 mins and measured up to 24 hrs by LC-MS/MS analysis. The data set is classed as ADME, organism-based. Particulars: in vivo.
Data set [11] is described as follows: Unbound blood clearance in dual cannulated Wistar-Han rat at 1 mg/kg, iv administered as infusion for 30 mins and measured up to 24 hrs by LC-MS/MS analysis. The data set is classed as ADME, organism-based. To be noted: in vivo.
The nature of data set [12]: Stability in cryopreserved Wistar-Han rat hepatocytes assessed as compound turnover rate at 0.5 uM measured up to 60 mins by LC-MS/MS analysis. The data set is classed as ADME, cell-based, Hepatocyte. Particulars: 1 h.
The nature of data set [13]: Inhibition of integrin alphavbeta8 (unknown origin) by radioligand binding assay. Also on record: species or system Homo sapiens.
Data set [14] is described as follows: Half-life in dual cannulated Wistar-Han rat at 1 mg/kg, iv administered as infusion for 60 mins and measured up to 7 hrs by LC-MS/MS analysis. The data set is classed as ADME, organism-based. To be noted: in vivo.
The nature of data set [15]: Blood clearance in dual cannulated Wistar-Han rat at 1 mg/kg, iv administered as infusion for 60 mins and measured up to 7 hrs by LC-MS/MS analysis. Format: ADME, organism-based. To be noted: whole blood.
Data set [16] concerns the target T1, Integrin alpha-V/beta-6. The data set is described as follows: Inhibition of integrin alphavbeta6 (unknown origin) by radioligand binding assay. Format: protein-complex assay.
The nature of data set [17]: Drug metabolism assessed as unmethylated (3S)-3-[3-(3,5-dimethylpyrazol-1-yl)phenyl]-4-[(3R)-3-[2-(5,6,7,8-tetrahydro-1,8-naphthyridin-2-yl)ethyl]pyrrolidin-1-yl]butanoic acid hydrochloride formation.
Data set [18] is described as follows: Protein binding in human lung homogenates assessed as fraction unbound at 1 ug/ml incubated for 4 hrs by LC-MS/MS-based rapid equilibrium dialysis method. To be noted: at 1 µg/mL. Format: ADME, tissue-based. (In general: In equilibrium dialysis free small molecules cross a membrane that holds back macromolecules.)
Data set [19] can be described thus: Unbound blood clearance in dual cannulated Wistar-Han rat at 1 mg/kg, iv administered as infusion for 60 mins and measured up to 7 hrs by LC-MS/MS analysis. The data set is classed as ADME, organism-based. Particulars: in vivo.
Data set [20] is described as follows: Protein binding in rat blood assessed as unbound fraction at 1 ug/ml incubated for 4 hrs by LC-MS/MS-based rapid equilibrium dialysis method. Format: ADME, tissue-based. Particulars: at 1 µg/mL.
Data set [21] can be described thus: in vitro. Particulars: not told.
Description: Permeability of the compound
Data set [22] can be described thus: Protein binding in human blood assessed as fraction unbound at 1 ug/ml incubated for 4 hrs by LC-MS/MS-based rapid equilibrium dialysis method. The data set is classed as ADME, tissue-based. To be noted: at 1 µg/mL.
For data set [23], the species on record is Homo sapiens. Briefly: Selectivity ratio of IC50 for integrin alphavbeta5 (unknown origin) expressed in human K562 cells to IC50 for integrin alphavbeta6 (unknown origin) expressed in human K562 cells. Format: cell-based.
The species entered for data set [24] is Homo sapiens. The data set is described as follows: Selectivity ratio of IC50 for integrin alphavbeta8 (unknown origin) expressed in human K562 cells to IC50 for integrin alphavbeta6 (unknown origin) expressed in human K562 cells. Format: cell-based.
The species entered for data set [25] is Homo sapiens. Briefly: Selectivity ratio of IC50 for integrin alphavbeta1 (unknown origin) expressed in human A549 cells to IC50 for integrin alphavbeta6 (unknown origin) expressed in human K562 cells. Format: cell-based.
For data set [26], the species on record is Homo sapiens. Briefly: Selectivity ratio of IC50 for integrin alphavbeta3 (unknown origin) expressed in human K562 cells to IC50 for integrin alphavbeta6 (unknown origin) expressed in human K562 cells. Format: cell-based.
Data set [27] can be described thus: Volume of distribution in dual cannulated Wistar-Han rat at 1 mg/kg, iv administered as infusion for 60 mins and measured up to 7 hrs by LC-MS/MS analysis. The data set is classed as ADME, organism-based. Particulars: in vivo.
Data set [28] in a line: physchem. To be noted: buffer.
Description: as §1
The target in data set [29] is Voltage-gated inwardly rectifying potassium channel KCNH2 (Homo sapiens, UniProt Q12809). The data set is described as follows: Inhibition of human ERG expressed in CHO-K1 cells at -80 mV holding potential by IonWorks barracuda automated electrophysiology method. Format: cell-based. In general terms: In patch-clamp work, channel activity is measured electrically.
A short description of data set [30]: Inhibition of human LAP binding to human integrin alphavbeta8 after 2 hrs.

Broadly, the IC50 is the midpoint of a concentration-inhibition curve. Usually chromatographic logD stands for a lipophilicity value derived from retention on a column. One may read the clearance as the volume of plasma or blood freed of the substance per unit of time. Low values mean inefficient removal, high ones efficient removal. As usually defined, the Vd is the apparent volume that relates the amount in the body to the concentration in plasma or blood. Low values mean little distribution into tissue, high ones wide distribution into tissue. One may read the pKi as the negative decadic logarithm of the Ki, by convention in mol/L. Read a high pKi as a small Ki. As usually defined, the half-life is the time in which the quantity being followed falls by half. Read a low half-life as fast loss. One may read the Ki as the dissociation constant of the complex between target and ligand, obtained from inhibition or displacement. Low readings indicate higher affinity, high ones lower affinity. By fraction unbound is commonly meant the share of the substance not bound to proteins or other matrix. As a reminder, the Papp is the rate of passage across a membrane or cell layer, normalised by area and donor concentration. In general, solubility (kinetic) refers to solubility judged after dilution from a stock solution rather than from solid.

Sequence of Integrin alpha-V/beta-5 (P06756 31-889 limits assumed): as the sequence (P06756 31-889 limits assumed) above
Sequence of Integrin alpha-V/beta-5 (P06756 891-1048 limits assumed): as the sequence (P06756 891-1048 limits assumed) above
Sequence of Integrin alpha-V/beta-5 (P18084 24-799 limits assumed): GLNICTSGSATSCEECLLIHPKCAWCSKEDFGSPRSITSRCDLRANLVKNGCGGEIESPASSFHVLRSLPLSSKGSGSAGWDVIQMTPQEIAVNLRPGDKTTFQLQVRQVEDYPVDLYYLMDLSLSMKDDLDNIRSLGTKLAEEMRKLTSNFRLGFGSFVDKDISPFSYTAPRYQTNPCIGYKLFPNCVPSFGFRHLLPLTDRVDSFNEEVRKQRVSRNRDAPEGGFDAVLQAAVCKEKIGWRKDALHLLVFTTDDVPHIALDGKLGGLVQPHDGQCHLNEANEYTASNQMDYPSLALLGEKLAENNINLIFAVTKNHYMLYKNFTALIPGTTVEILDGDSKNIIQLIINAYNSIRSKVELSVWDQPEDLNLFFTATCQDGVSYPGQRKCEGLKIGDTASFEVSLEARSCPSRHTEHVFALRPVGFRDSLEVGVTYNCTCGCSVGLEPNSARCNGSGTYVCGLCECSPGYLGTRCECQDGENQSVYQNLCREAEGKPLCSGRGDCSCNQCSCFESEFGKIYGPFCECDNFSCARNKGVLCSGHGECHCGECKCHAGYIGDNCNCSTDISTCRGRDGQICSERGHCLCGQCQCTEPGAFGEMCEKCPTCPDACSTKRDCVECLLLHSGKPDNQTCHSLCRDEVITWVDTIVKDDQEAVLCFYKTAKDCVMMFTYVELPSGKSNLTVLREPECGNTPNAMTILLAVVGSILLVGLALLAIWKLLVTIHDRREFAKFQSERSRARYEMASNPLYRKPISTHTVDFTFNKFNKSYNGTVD
T1 sequence (P06756 31-889 limits assumed): as the sequence (P06756 31-889 limits assumed) above
T1 sequence (P06756 891-1048 limits assumed): as the sequence (P06756 891-1048 limits assumed) above
T1 sequence (P18564 22-788 limits assumed): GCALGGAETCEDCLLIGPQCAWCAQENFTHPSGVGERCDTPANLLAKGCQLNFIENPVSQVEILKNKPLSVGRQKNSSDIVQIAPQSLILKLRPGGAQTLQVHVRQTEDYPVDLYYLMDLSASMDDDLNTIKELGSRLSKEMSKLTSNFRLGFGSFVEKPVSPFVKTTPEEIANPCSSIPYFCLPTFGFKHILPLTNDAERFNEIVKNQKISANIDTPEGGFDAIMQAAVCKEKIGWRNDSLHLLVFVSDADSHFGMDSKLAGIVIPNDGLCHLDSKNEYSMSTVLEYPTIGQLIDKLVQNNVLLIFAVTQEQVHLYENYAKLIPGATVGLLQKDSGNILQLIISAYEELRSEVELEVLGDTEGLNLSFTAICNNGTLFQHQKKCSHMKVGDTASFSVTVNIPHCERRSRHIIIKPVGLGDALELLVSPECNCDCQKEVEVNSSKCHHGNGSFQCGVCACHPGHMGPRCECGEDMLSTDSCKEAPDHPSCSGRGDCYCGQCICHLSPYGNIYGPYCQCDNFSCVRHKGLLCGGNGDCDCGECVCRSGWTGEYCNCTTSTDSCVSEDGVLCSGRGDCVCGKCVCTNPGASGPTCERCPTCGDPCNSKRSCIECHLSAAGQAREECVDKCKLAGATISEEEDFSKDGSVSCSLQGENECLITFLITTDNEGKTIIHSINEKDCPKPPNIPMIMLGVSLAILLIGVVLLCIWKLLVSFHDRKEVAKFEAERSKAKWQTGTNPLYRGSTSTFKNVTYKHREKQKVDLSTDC

Consider `C[N+]1(C[C@@H](CC(=O)[O-])c2cccc(O[C@@H]3CCOC3)c2)CC[C@@H](CCc2ccc3c(n2)NCCC3)C1` (mixture of isomers), for which the IC50 is 79.4 nM in data set [1]; 12.6 nM in [4]; 3980 nM in data set [5]; 3980 nM in data set [6]; 200 nM in [7]. The Kinetic_solubility entry in data set [2] was “Soluble”. This compound also returned a chromatographic logD in data set [3] of 1.9.
In the case of `CC[N@+]1(C[C@@H](CC(=O)[O-])c2cccc(-n3nc(C)cc3C)c2)CC[C@@H](CCc2ccc3c(n2)NCCC3)C1`, the IC50 in [1] was > 10000 nM; in data set [4], 39.8 nM; in data set [5], 5010 nM; in data set [7] it was 1260 nM. Also, the Kinetic_solubility entry in data set [2] was “Soluble”. The same compound gave a chromatographic logD in [3] of 2.8.
Consider `O=C(O)C[C@H](CN1CC[C@@H](CCc2ccc3c(n2)NCCC3)C1)c1cccc(N2CCOCC2)c1`, for which the Kinetic_solubility entry in data set [2] is on record as “Soluble”. In data set [3], this compound yielded a chromatographic logD of 2.3.
For the compound `Cc1cc(C)n(-c2cccc([C@H](CC(=O)O)CN3CC[C@@H](CCc4ccc5c(n4)NCCC5)C3)c2)n1.Cl` [GSK-3008348], the Stability in [8] is < 0.86 mL/min/g. The clearance in data set [9] came to 56 mL/min/kg. In addition, the volume of distribution (Vd) in [10] came out at 2.1 L/kg. The compound also showed a CL free in [11] of 150 mL/min/kg. Besides, in data set [12], the Drug metabolism was found to be 9.45 mL/min/g. For the same compound, in [13], the pKi is 8.7.
In turn, `Cc1cc(C)n(-c2cccc([C@H](CC(=O)[O-])C[N@@+]3(C)CC[C@@H](CCc4ccc5c(n4)NCCC5)C3)c2)n1` showed a half-life in data set [14] of 13.2 min. The compound also had a clearance in data set [15] of 87.6 mL/min/kg. Moreover, the Stability in data set [8] is < 0.45 mL/min/g. The affinity in data set [16], expressed as Ki, was 0.107 nM. For the same compound, the IC50 in data set [1] is 501 nM; in data set [4] it was 3.16 nM; in data set [5], 631 nM; in [6], 6310 nM; in data set [29] it was > 50100 nM; in [7], 79.4 nM. Further, the chromatographic logD in data set [3] was 2.5. Besides, the Drug metabolism result in data set [17] is “Metabolite not detected”; in data set [12] it was 1.22 mL/min/g. The figures for the fraction unbound at 4 h, 1 ug/ml in data set [18], in data set [20] and in data set [22] were 0.097, 0.583 and 0.503, respectively. The CL free in [19] is 190 mL/min/kg. The Papp in [21] was < 0.8 ×10⁻⁶ cm/s. Moreover, the Ratio IC50 in [23], in data set [24], in data set [25] and in data set [26] was 10 to 1000 throughout. The compound also registered a Vd in data set [27] of 1.1 L/kg. Moreover, the kinetic solubility in data set [28] was > 1000 µg/mL.
The compound `Cc1cc(C)n(-c2cccc([C@H](CC(=O)[O-])C[N@+]3(C)CC[C@@H](CCc4ccc5c(n4)NCCC5)C3)c2)n1` showed a Ki in data set [16] of 0.174 nM. For the same compound, the IC50 is 1000 nM in data set [1]; 3.16 nM in [4]; 2000 nM in data set [5]; > 10000 nM in data set [6]; 63.1 nM in data set [7]. The Kinetic_solubility entry in [2] is listed as “Soluble”. Also, the chromatographic logD in data set [3] is 2.4. For the same compound, the Ratio IC50 in [23], in [24], in data set [25] and in [26] was 10 to 1000 each time.
For the compound `Cc1ccnn1-c1cccc([C@H](CC(=O)[O-])C[N+]2(C)CC[C@@H](CCc3ccc4c(n3)NCCC4)C2)c1` (mixture of isomers), the IC50 in data set [1] is 631 nM; in data set [5], 1580 nM; in data set [6] it was 6310 nM; in data set [7], 100 nM. Also, in data set [2], the Kinetic_solubility entry is listed as “Soluble”. In data set [3], the chromatographic logD was found to be 2.1.
For `C[N+]1(C[C@@H](CC(=O)[O-])c2cccc(N3CCOCC3)c2)CC[C@@H](CCc2ccc3c(n2)NCCC3)C1` (mixture of isomers), the IC50 in data set [1] is 251 nM; in data set [4], 12.6 nM; in [5], 794 nM; in data set [6], 5010 nM; in [7] it was 126 nM. For the same compound, the Kinetic_solubility entry in data set [2] is reported as “Soluble”. In data set [3], this compound gave a chromatographic logD of 1.8.
On to `CC(C)(C)c1cc(Br)cc([C@H](CC(=O)O)NC(=O)CNC(=O)c2cc(O)cc(NC3=NCC(O)CN3)c2)c1` (stereo partly specified), for which the IC50 in [30] came to 0.2 nM.
